The values below come from publication PMC9332833 (Cancers, 2022).

A short description of this data set: Pharmacokinetics in Balb/c nude mice. In kind it is in vivo. Conditions: for MRT last / half-life / AUC(0-inf) / C0: Balb/c nude; for AUC(0-inf): extrapolated to infinity; for C0: extrapolated to t = 0. As to the method:
Eight-week-old female Balb/c nude mice were randomly divided into test groups and injected with BK124.1 either intraperitoneally, at 20 mg/kg or 40 mg/kg concentrations, or intravenously at 20 mg/kg concentration. The compound blood concentration was measured 15 min, 6, 12, and 24 h post-injection. For each time point, 4 mice were sacrificed. BK124.1 concentration in the bloodstream was analyzed using mass spectrometry. Toxicology was assessed by examining physiological and morphological changes at the injection site, the appearance of internal organs (liver, heart, kidneys, and spleen), blood tests, body mass, and animal behavior.

[1] abbreviates: IP 20 mg/kg, whole blood, female mouse.
Setting [2] is: IP 40 mg/kg, whole blood, female mouse.
Setting [3] is: IV 20 mg/kg, whole blood, female mouse.

On to `CCC12C(=O)C(CC)(C(c3ccccc3)=C1c1ccccc1)C1C(=O)N(CC(O)CNC(C)C)C(=O)C12` (stereo not drawn) [BK124.1, 4-[2-hydroxy-3-(propan-2-ylamino)propyl]-1,7-diethyl-8,9-diphenyl-4-azatricyclo [5.2.1.02,6]dec-8-ene-3,5,10-trione], for which, under setting [1], the MRT last is 5.09 h, the half-life is 3.53 h, the AUC(0-inf) was 9580 ng·h/mL and the C0 was 1740 ng/mL. Under setting [1], the “AUClast, dose normalized” value turned out to be 3.24 kg·ng·h/mL/mg and the “AUC∞, dose normalized” value came to 479 kg·ng·h/mL/mg. Also, under setting [2], the MRT last worked out at 7.48 h, the half-life is 5.18 h, the area under the curve AUC(0-inf) is 23500 ng·h/mL and the C0 was 2760 ng/mL. Under setting [2], the “AUClast, dose normalized” value stood at 16.18 kg·ng·h/mL/mg and the “AUC∞, dose normalized” value worked out at 587 kg·ng·h/mL/mg. Under setting [3], the MRT last was 4.78 h, the half-life is 3.31 h, the AUC(0-inf) was 6620 ng·h/mL and the C0 was 1020 ng/mL. Moreover, under setting [3], the “AUClast, dose normalized” value was found to be 2.50 kg·ng·h/mL/mg and the “AUC∞, dose normalized” value came out at 331 kg·ng·h/mL/mg. Also, the half-life (female, mouse, IP 20 mg/kg, blood) was 3.53 h. Also, the half-life (female, mouse, IP 40 mg/kg, blood) was 5.18 h. The molecule also gave a half-life (female, mouse, IV 20 mg/kg, blood) of 3.31 h.
